From patent US20240285571A1, “METHODS OF TREATING BONE INFECTIONS” (MICROBION CORPORATION, priority 2020, published 2024)
Like-named read-outs stand apart in the source and are kept apart here.

Tests used:
E. coli = assay: Broth microdilution MIC (Example 5); assay type: cell-based, Escherichia coli; settings: Escherichia coli
Protocol: (§1) Test and Comparator Agents: The test agents were stored at room temperature until assayed. […] The stock solutions were allowed to stand for at least 1 hr prior to use to auto-sterilize.
(§2) TestMedia: Test media were prepared and stored in accordance with guidelines from CLSI (4, 6, 7).
(§3) Broth Microdilution MC Testing (Aerobic Bacteria and Yeast): The broth microdilution assay method employed for the susceptibility testing of aerobic bacteria (excluding N. gonorrhoeae which was evaluated by agar dilution) and yeast essentially followed the procedures described by CLSI (3, 4, 7, 8) and employed automated liquid handlers to conduct serial dilutions and liquid transfers. […] These would become the ‘mother plates’ from which ‘daughter’ or test plates would be prepared. The drugs (300 μL at 40× the desired top concentration in the test plates) were dispensed into the appropriate well in Column 1 of the mother plates. The Biomek 2000 was used to make serial two-fold dilutions through Column 11 in the “mother plate”. The wells of Column 12 contained no drug and ultimately served as the organism growth control wells.
(§4) The daughter plates were prepared using the Biomek FX which transferred 5 μL of drug solution from each well of a mother plate to the corresponding well of the correct daughter plate in a single step.
(§5) A standardized inoculum of each organism was prepared per CLSI methods (3, 7). Isolated colonies of each test isolate were picked from the primary plate and a suspension was prepared to equal a 0.5 McFarland turbidity standard. Standardized suspensions were then diluted […] (1:100 for yeast, 1:20 for bacteria). After dilution, the inoculum suspensions were then transferred to compartments of sterile reservoirs divided by length (Beckman Coulter), and the Biomek 2000 was used to inoculate all plates. Daughter plates were placed on the Biomek 2000 in reverse orientation so that plates were inoculated from low to high drug concentration.
(§6) The Biomek 2000 delivered 10 μL of standardized inoculum into each well of the appropriate daughter plate for an additional 1:20 dilution.
(§7) Plates were stacked 4 high, covered with a lid on the top plate, placed into plastic bags, and incubated at 35° C. for approximately 24-48 hr for all yeast isolates and 16-24 hr for aerobic bacteria. Plates were viewed from the bottom using a plate viewer. […] MIC endpoints for the test agents and control compounds were read per CLSI criteria (3, 7).

E. faecalis = assay: Broth microdilution MIC (Example 5); assay type: cell-based, Enterococcus faecalis; settings: Enterococcus faecalis, VRE
Protocol: as §1, §2, §3, §4, §5, §6, §7

C. albicans = assay: Broth microdilution MIC, yeast (Example 5); assay type: cell-based; settings: Candida albicans, Sensitive
Protocol: (§8) Test and Comparator Agents: The test agents were stored at room temperature until assayed. All test agents were suspended and diluted in 100% dimethylsulfoxide (DMSO), and were ultimately tested at a final concentration of 0.06-64 μg/mL. The stock solutions were allowed to stand for at least 1 hr prior to use to auto-sterilize.
(§9) The susceptibility of yeast isolates was determined by broth microdilution in RPMI medium (HyClone Laboratories, Logan, UT; Lot No. AZC184041B) buffered with 0.165 M MOPS (Calbiochem, Billerica, MA; Lot No. 2694962). The pH of the medium was adjusted to 7.0 with 1 N NaOH, sterile filtered using a 0.2 μm PES filter, and stored at 4° C. until used.
(§10) Broth Microdilution MC Testing (Aerobic Bacteria and Yeast): The broth microdilution assay method employed for the susceptibility testing of aerobic bacteria (excluding N. gonorrhoeae which was evaluated by agar dilution) and yeast essentially followed the procedures described by CLSI (3, 4, 7, 8) and employed automated liquid handlers to conduct serial dilutions and liquid transfers. Automated liquid handlers included the Multidrop 384 (Labsystems, Helsinki, Finland) and Biomek 2000 (Beckman Coulter, Fullerton CA). The wells in columns 2-12 in standard 96-well microdilution plates (Costar 3795) were filled with 150 μl of the correct diluent. These would become the ‘mother plates’ from which ‘daughter’ or test plates would be prepared. The drugs (300 μL at 40× the desired top concentration in the test plates) were dispensed into the appropriate well in Column 1 of the mother plates. The Biomek 2000 was used to make serial two-fold dilutions through Column 11 in the “mother plate”. The wells of Column 12 contained no drug and ultimately served as the organism growth control wells.
as §4, with “The daughter plates were loaded with 185 μL per well of the appropriate test media using the Multidrop 384. The” for “The”
as §5
(§11) The Biomek 2000 delivered 10 μL of standardized inoculum into each well of the appropriate daughter plate for an additional 1:20 dilution. […] The final concentration of DMSO (if used as a solvent) in the test well was 2.5%.
as §7

C. glabrata = assay: Broth microdilution MIC, yeast (Example 5); assay type: cell-based; settings: Nakaseomyces glabratus, FLUR
Protocol: as §8, §9, §10
as §4, with “The daughter plates were loaded with 185 μL per well of the appropriate test media using the Multidrop 384. The” for “The”
as §5, §11, §7

C. parapsilosis = assay: Broth microdilution MIC, yeast (Example 5); assay type: cell-based; settings: Lodderomyces parapsilosis
Protocol: as §8, §9, §10
as §4, with “The daughter plates were loaded with 185 μL per well of the appropriate test media using the Multidrop 384. The” for “The”
as §5, §11, §7

[1] = test system: beta-hemolytic streptococci; assay: MIC summary, beta-hemolytic streptococci (Example 5); assay type: cell-based, S. pyogenes, S. agalactiae; settings: beta-hemolytic streptococci (Table 6); read-out: MIC values across isolates
Protocol: as §8
TestMedia: Test media were prepared and stored in accordance with guidelines from CLSI (4, 6, 7). […] Neisseria gonorrhoeae were evaluated by agar dilution using agar consisting of GC medium base (BD; Lot No. 4274618) supplemented with 1% IsoVitaleX (BD; Lot No. 5246843).
Broth Microdilution MC Testing (Aerobic Bacteria and Yeast): The broth microdilution assay method employed for the susceptibility testing of aerobic bacteria (excluding N. gonorrhoeae which was evaluated by agar dilution) and yeast essentially followed the procedures described by CLSI (3, 4, 7, 8) and employed automated liquid handlers to conduct serial dilutions and liquid transfers. […]
Plates were stacked 4 high, covered with a lid on the top plate, placed into plastic bags, and incubated at 35° C. for approximately 24-48 hr for all yeast isolates and 16-24 hr for aerobic bacteria. […] MIC endpoints for the test agents and control compounds were read per CLSI criteria (3, 7).

[2] = test system: Achromobacter spp. biofilm; assay: Activity against biofilms (Example 7); assay type: cell-based; settings: tested up to 250 μg/mL
MDR P. aeruginosa = assay: MIC against CF isolates (Example 7, Table 18); assay type: cell-based; settings: Pseudomonas aeruginosa, Multi-drug resistant
Achromobacter spp. = assay: MIC against CF isolates (Example 7, Table 18); assay type: cell-based; settings: strain AX4, A. xylosoxidans
[3] = 24 h, C. parapsilosis MMX 7370, FLUR
[4] = 24 h, C. parapsilosis MMX 7555, FLUR
[5] = 48 h, C. parapsilosis MMX 7370, FLUR
[6] = 48 h, C. parapsilosis MMX 7555, FLUR
[7] = ATCC22019, 24 h, C. parapsilosis MMX 2323 (ATCC 22019), QC, 24 hr
[8] = ATCC22019, 48 h, C. parapsilosis MMX 2323 (ATCC 22019), QC, 48 hr

Compound | MIC (E. faecalis; E. faecalis MMX 8960) | MIC (E. faecalis; E. faecalis MMX 8961) | MIC (E. faecalis; E. faecalis MMX 8962) | MIC (C. albicans; 24 h, C. albicans MMX 7055) | MIC (C. albicans; 48 h, C. albicans MMX 7039) | MIC (C. albicans; 48 h, C. albicans MMX 7055) | MIC (C. glabrata; 24 h, C. glabrata MMX 7086) | MIC (C. glabrata; 24 h, C. glabrata MMX 7318) | MIC (C. glabrata; 48 h, C. glabrata MMX 7086) | MIC (C. glabrata; 48 h, C. glabrata MMX 7318) | MIC (C. parapsilosis; [3]) | MIC (C. parapsilosis; [4]) | MIC (C. parapsilosis; [5]) | MIC (C. parapsilosis; [6]) | MIC (C. parapsilosis; [7]) | MIC (C. parapsilosis; [8]) | also measured
OCC(S)CS.[Bi] (stereo not shown) [MB-2B, bismuth-2,3-dimercaptopropanol] | 2 µg/mL | 2 µg/mL | 2 µg/mL | 1 µg/mL | 2 µg/mL | 4 µg/mL | 0.5 µg/mL | 0.25 µg/mL | 1 µg/mL | 1 µg/mL | 0.5 µg/mL | 0.25 µg/mL | 0.5 µg/mL | 1 µg/mL | 0.5 µg/mL | 1 µg/mL | MIC (E. coli; ATCC25922, E. coli MMX 102 (ATCC 25922), QC, read-out: MIC): 2 µg/mL; MIC (E. coli; ATCCBAA2469, E. coli MMX 5980 (ATCC BAA-2469), NDM-1): 2 µg/mL; MIC (E. coli; E. coli MMX 8423, ESBL, LevR CAZR GmR, read-out: MIC): 2 µg/mL; MIC (E. coli; E. coli MMX 8424, ESBL, CAZR, read-out: MIC): 4 µg/mL; MIC (E. coli; E. coli MMX 8425, ESBL, LevR CAZR GmR, read-out: MIC): 2 µg/mL; MIC (C. albicans; 24 h, C. albicans MMX 7039): 2 µg/mL; MIC [1]: 0.25 to 8 µg/mL
CC(S)C(C)S.[Bi] (stereo not shown) [MB-6, bismuth-2,3-butanedithiol] | 0.5 µg/mL | 0.25 µg/mL | 0.25 µg/mL | 2 µg/mL | 2 µg/mL | 2 µg/mL | 0.5 µg/mL | 0.25 µg/mL | 1 µg/mL | 0.5 µg/mL | 0.25 µg/mL | 0.25 µg/mL | 0.5 µg/mL | 0.5 µg/mL | 0.5 µg/mL | 1 µg/mL | Reduction in viable biofilm cells [2]: 5 log
NCC[C@H](O)C(=O)N[C@@H]1C[C@H](N)[C@@H](O[C@H]2O[C@H](CN)[C@@H](O)[C@H](O)[C@H]2O)[C@H](O)[C@H]1O[C@H]1O[C@H](CO)[C@@H](O)[C@H](N)[C@H]1O [Amikacin] | – | – | – | – | – | – | – | – | – | – | – | – | – | – | – | – | MIC (MDR P. aeruginosa; strain AGR14, P. aeruginosa): > 64 µg/mL; MIC (MDR P. aeruginosa; strain MR14, P. aeruginosa): > 64 µg/mL; MIC (Achromobacter spp.): > 64 µg/mL
